Source: patent US20190389843A1, “PYRROLE mTORC INHIBITORS AND USES THEREOF” (Navitor Pharmaceuticals, Inc., priority 2016, published 2019)

How the values were obtained:
[1] = test system: pAKT in MCF7 (measure of mTORC2 activity); experiment: AlphaLISA Ultra pAKT assay; type: cell-based; details: Homo sapiens, MCF7, 2 h, MCF-7 cells, 2 hours compound incubation
In short: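 MCF7 cells, 16,000-20,000 per well, treated with compound for 2 h at 0.5% final DMSO, then lysed. Phospho-AKT, as a readout of mTORC2 activity, measured by AlphaLISA Ultra with acceptor beads and then donor beads, 2 h each.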

[2] = test system: pS6K1 in MCF7 (measure of mTORC1 activity); experiment: AlphaLISA Ultra pS6K1 assay; type: cell-based; details: Homo sapiens, MCF7, 2 h, MCF-7 cells, 2 hours compound incubation
In short: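 MCF7 cells, refreshed medium 2 h, treated with compound 2 h at 0.5% DMSO final, then lysed. Phospho-S6K1 in lysates detected by AlphaLISA Ultra (acceptor beads 2 h, donor beads 2 h), read as Alpha signal on a multimode reader.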

Row | Structure (SMILES) | IC50 [1] | IC50 [2]
1 | Cn1c(C(=O)N2CCN(c3ccccc3)CC2)cc(CN2CCN(c3ccccc3C#N)CC2)c1C#N [Example I-39] | > 10 µM | 0.01 to 1 µM
2 | Cc1c(CN2CCN(c3ccccc3C#N)CC2)cc(C(=O)N2CCN(c3ccccc3S(C)(=O)=O)CC2)n1C [Example I-21] | > 10 µM | 1 to 3 µM
3 | Cc1nc(C#N)c(N2CCN(C(=O)c3cc(CN4CCN(c5ccccc5C#N)CC4)c(C)n3C)CC2)o1 [Example I-22] | > 10 µM | 1 to 3 µM
4 | Cc1c(CN2CCN(c3ccccc3Cl)CC2)cc(C(=O)N2CCN(c3cc(C#N)ccn3)CC2)n1C [Example I-59] | > 3 µM | 1 to 3 µM
5 | Cc1cccc(N2CCN(C(=O)c3cc(CN4CCN(c5ccccc5C#N)CC4)c(C)n3C)CC2)n1 [Example I-64] | > 3 µM | 0.01 to 1 µM
6 | C[C@H]1CN(c2ccccc2C#N)CCN1C(=O)c1cc(CN2CCN(c3ccccc3C#N)CC2)cn1C [Example I-58] | > 10 µM | 0.01 to 1 µM
7 | Cc1c(CN2CCN(c3ccccc3Cl)CC2)cc(C(=O)N2CCN(c3cnccn3)C[C@@H]2C)n1C [Example I-51, (S)-(4-((4-(2-chlorophenyl)piperazin-1-yl)methyl)-1,5-dimethyl-1H-pyrrol-2-yl)(2-methyl-4-(pyrazin-2-yl)piperazin-1-yl)methanone] | > 10 µM | 0.01 to 1 µM
8 | Cn1c(C(=O)N2CCN(c3ccccc3)CC2)cc(CN2CCN(c3ccccc3Cl)CC2)c1C#N [Example I-36] | > 10 µM | 0.01 to 1 µM
9 | Cc1c(CN2CCN(c3ccccc3C#N)CC2)cc(C(=O)N2CCCN(c3cccc(C#N)c3)CC2)n1C [Example I-45, 2-(4-((5-(4-(3-cyanophenyl)-1,4-diazepane-1-carbonyl)-1,2-dimethyl-1H-pyrrol-3-yl)methyl)piperazin-1-yl)benzonitrile] | > 10 µM | 1 to 3 µM
10 | Cc1c(CN2CCN(c3ccccc3Cl)CC2)cc(C(=O)N2CCCN(c3cccc(C#N)c3)CC2)n1C [Example I-40, 3-(4-(4-((4-(2-chlorophenyl)piperazin-1-yl)methyl)-1,5-dimethyl-1H-pyrrole-2-carbonyl)-1,4-diazepan-1-yl)benzonitrile] | > 10 µM | 3 to 10 µM
11 | Cc1c(CN2CCN(c3ccccc3C#N)CC2)cc(C(=O)N2CCN(c3oc(C4CC4)nc3C#N)CC2)n1C [Example I-14] | > 10 µM | 0.01 to 1 µM
12 | Cc1c(CN2CCN(c3ccccc3C#N)CC2)cc(C(=O)N2CCN(c3ccccn3)C[C@@H]2C)n1C [Example I-42] | > 3 µM | 0.01 to 1 µM
13 | Cc1c(CN2CCN(c3ccccc3C#N)CC2)cc(C(=O)N2CCN(c3nnccc3C#N)CC2)n1C [Example I-15] | > 10 µM | 1 to 3 µM
14 | Cc1c(CN2CCN(c3ccccc3C#N)CC2)cc(C(=O)N2CCN(c3ccc4ncn(C)c4c3)CC2)n1C [Example I-48] | > 10 µM | 3 to 10 µM

The remaining lines, values ahead:

Row | IC50 [1] | IC50 [2] | Structure (SMILES)
15 | > 1 µM | 0.01 to 1 µM | Cc1c(CN2CCN(c3ccccc3Cl)CC2)cc(C(=O)N2CCN(c3cccc(F)c3)CC2)n1C [Example I-108, (4-((4-(2-Chlorophenyl)piperazin-1-yl)methyl)-1,5-dimethyl-1H-pyrrol-2-yl)(4-(3-fluorophenyl)piperazin-1-yl)methanone]
16 | > 3 µM | 0.01 to 1 µM | Cc1c(CN2CCN(c3ccccc3Cl)CC2)cc(C(=O)N2CCN(c3ccc(F)cc3)CC2)n1C [Example I-115, (4-((4-(2-Chlorophenyl)piperazin-1-yl)methyl)-1,5-dimethyl-1H-pyrrol-2-yl)(4-(4-fluorophenyl)piperazin-1-yl)methanone]
17 | > 3 µM | 1 to 3 µM | O=C(c1cc(CN2CCN(c3ccccc3Cl)CC2)cn1CCO)N1CCN(c2ccccc2)CC1 [Example I-142]
18 | > 3 µM | 1 to 3 µM | C[C@H]1CN(c2ccccc2)CCN1C(=O)c1cc(CN2CCN(c3ccccc3Cl)CC2)cn1C [Example I-136, (S)-(4-((4-(2-chlorophenyl)piperazin-1-yl)methyl)-1-methyl-1H-pyrrol-2-yl)(2-methyl-4-phenylpiperazin-1-yl)methanone]
19 | > 3 µM | 0.01 to 1 µM | Cc1c(CN2CCN(c3ccccc3Cl)CC2)cc(C(=O)N2CCN(c3ccc(F)cc3)C[C@@H]2C)n1C [Example I-95, (S)-(4-((4-(2-chlorophenyl)piperazin-1-yl)methyl)-1,5-dimethyl-1H-pyrrol-2-yl)(4-(4-fluorophenyl)-2-methylpiperazin-1-yl)methanone]
20 | > 10 µM | 1 to 3 µM | Cn1cc(CNC2CCN(c3ccccc3Cl)CC2)cc1C(=O)N1CCN(c2ccc(F)cc2)CC1 [Example I-129]
21 | > 1 µM | 0.01 to 1 µM | Cc1c(CN2CCN(c3ncccc3Cl)CC2)cc(C(=O)N2CCN(c3ccc(F)cc3)C[C@@H]2C)n1C [Example I-92, (S)-(4-((4-(3-chloropyridin-2-yl)piperazin-1-yl)methyl)-1,5-dimethyl-1H-pyrrol-2-yl)(4-(4-fluorophenyl)-2-methylpiperazin-1-yl)methanone]
22 | > 10 µM | 3 to 10 µM | COCCCn1cc(CN2CCN(c3ccccc3Cl)CC2)cc1C(=O)N1CCN(c2ccccc2)CC1 [Example I-145]
23 | > 3 µM | 0.01 to 1 µM | Cc1c(CN2CCN(c3ccccc3Cl)CC2)cc(C(=O)N2CCN(c3ccc(F)c(C#N)c3)CC2)n1C [Example I-105, 5-(4-(4-((4-(2-Chlorophenyl)piperazin-1-yl)methyl)-1,5-dimethyl-1H-pyrrole-2-carbonyl)piperazin-1-yl)-2-fluorobenzonitrile]
24 | > 3 µM | 0.01 to 1 µM | Cc1c(CN2CCN(c3ccccc3C#N)CC2)cc(C(=O)N2CCN(c3cc(C#N)ccn3)CC2)n1C [Example I-65]
25 | > 3 µM | 0.01 to 1 µM | Cc1c(CN2CCN(c3ncccc3Cl)CC2)cc(C(=O)N2CCN(c3ccc(F)c(F)c3)CC2)n1C [Example I-84, (4-((4-(3-chloropyridin-2-yl)piperazin-1-yl)methyl)-1,5-dimethyl-1H-pyrrol-2-yl)(4-(3,4-difluorophenyl)piperazin-1-yl)methanone]
26 | > 10 µM | 3 to 10 µM | COCCn1cc(CN2CCN(c3ccccc3C#N)CC2)cc1C(=O)N1CCN(c2ccccc2OC)CC1 [Example I-150]
27 | > 1 µM | 0.01 to 1 µM | Cc1c(CN2CCN(c3ccccc3Cl)CC2)cc(C(=O)N2CCN(c3cccc(C#N)c3)C[C@@H]2C)n1C [Example I-120, (S)-3-(4-(4-((4-(2-chlorophenyl)piperazin-1-yl)methyl)-1,5-dimethyl-1H-pyrrole-2-carbonyl)-3-methylpiperazin-1-yl)benzonitrile]
28 | > 1 µM | 0.01 to 1 µM | Cc1c(CN2CCN(c3ccccc3Cl)CC2)cc(C(=O)N2CCN(c3ccccc3)CC2)n1C [Example I-133, (4-((4-(2-Chlorophenyl)piperazin-1-yl)methyl)-1,5-dimethyl-1H-pyrrol-2-yl)(4-phenylpiperazin-1-yl)methanone]
29 | > 10 µM | 1 to 3 µM | C[C@@H]1CN(Cc2cc(C(=O)N3CCN(c4ccc(F)cc4)CC3)n(C)c2)CCN1c1ccccc1Cl [Example I-103]
30 | > 3 µM | 0.01 to 1 µM | Cc1c(CN2CCN(c3ccccc3Cl)CC2)cc(C(=O)N2CCN(c3cc(F)ccc3C#N)CC2)n1C [Example I-85, 2-(4-(4-((4-(2-Chlorophenyl)piperazin-1-yl)methyl)-1,5-dimethyl-1H-pyrrole-2-carbonyl)piperazin-1-yl)-4-fluorobenzonitrile]
